This passage reports IC50 and viability, T/C results from PubChem BioAssay AID1918938 (Molecular Pharmacology Branch, DTP, NCI, 2023).

Structures are written as SMILES. Several values for one entry are separate records, joined by “and”; a condition that tells them apart may be missing. Identical values can stand only once.

The test deals with 556581-035-R-J1-PDC complex spheroid viability. Put plainly: Anticancer human tumor 556581-035-R-J1-PDC patient-derived ovarian carcinoma cell line growth inhibition. To be noted: for viability, T/C: stronger effect = lower value. Summed up:
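Complex spheroids of tumor cells with HUVEC and human MSCs, exposed to iadademstat combined with other agents. Each agent tested in half-log steps from near clinical Cmax (else 10 microM top), DMSO ≤0.25%.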

The mark [1] stands for this setting: curve of first compound, second compound 0.1 µM.
The mark [2] stands for this setting: curve of first compound, second compound 0.316 µM.
[3] abbreviates: curve of first compound, second compound 1 µM.
The mark [4] stands for this setting: curve of first compound, second compound 3.16 µM.
Where [5] appears, read: curve of first compound, second compound 10 µM.
Where [6] appears, read: second compound 0.1 µM, first compound 0.0316 µM.
Setting [7] is: second compound 0.1 µM, first compound 0.1 µM.
The mark [8] stands for this setting: second compound 0.316 µM, first compound 0.0316 µM.
The mark [9] stands for this setting: second compound 0.316 µM, first compound 0.1 µM.
[10] abbreviates: second compound 1 µM, first compound 0.0316 µM.
Setting [11] is: second compound 1 µM, first compound 0.1 µM.
Setting [12] is: second compound 3.16 µM, first compound 0.0316 µM.
The mark [13] stands for this setting: second compound 3.16 µM, first compound 0.1 µM.
Where [14] appears, read: second compound 10 µM, first compound 0.0316 µM.
The mark [15] stands for this setting: second compound 10 µM, first compound 0.1 µM.
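Note: spheroids exposed to agents for seven days.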
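Throughout, for viability, T/C: 100% = DMSO vehicle control wells.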

One may read the IC50 as the concentration at which inhibition is half-maximal. Usually viability, T/C stands for the result in the treated group divided by that in the control group, in per cent. Take `CC[C@@]1(O)C(=O)OCc2c1cc1n(c2=O)Cc2cc3c(CN(C)C)c(O)ccc3nc2-1` + NC1CC1c1ccc(-c2cccc(O)c2)cc1: the IC50 was 5.86 nM under setting [1]; 5.85 nM under setting [2]; 5.62 nM under setting [3]; 6.11 nM under setting [4]; 5.17 nM under setting [5]. Also, the viability, T/C (second compound 0.1 µM, first compound 0.000316 µM) is 97.9%; the viability, T/C (second compound 0.1 µM, first compound 0.001 µM) is 88.2%; the viability, T/C (second compound 0.1 µM, first compound 0.00316 µM) was 67%; the viability, T/C (second compound 0.1 µM, first compound 0.01 µM) is 34.9%; the viability, T/C under setting [6] was 16.6%; the viability, T/C under setting [7] was 7.12%. Moreover, the viability, T/C is, setting by setting: (second compound 0.316 µM, first compound 0.000316 µM) 95.5%; (second compound 0.316 µM, first compound 0.001 µM) 104%; (second compound 0.316 µM, first compound 0.00316 µM) 64.8%; (second compound 0.316 µM, first compound 0.01 µM) 34.5%; under setting [8], 16.6%; under setting [9], 6.13%. Also, the viability, T/C is 91.2% (second compound 1 µM, first compound 0.000316 µM); 95.1% (second compound 1 µM, first compound 0.001 µM); 68.4% (second compound 1 µM, first compound 0.00316 µM); 30.3% (second compound 1 µM, first compound 0.01 µM); 13.3% under setting [10]; 6.38% under setting [11]. Further, the viability, T/C runs as follows: (second compound 3.16 µM, first compound 0.000316 µM) 103%; (second compound 3.16 µM, first compound 0.001 µM) 96.1%; (second compound 3.16 µM, first compound 0.00316 µM) 69.9%; (second compound 3.16 µM, first compound 0.01 µM) 34.7%; under setting [12], 14.4%; under setting [13], 6.43%. The viability, T/C is, setting by setting: (second compound 10 µM, first compound 0.000316 µM) 87.9%; (second compound 10 µM, first compound 0.001 µM) 79.8%; (second compound 10 µM, first compound 0.00316 µM) 59%; (second compound 10 µM, first compound 0.01 µM) 35.6%; under setting [14], 20.7%; under setting [15], 5.8%.

For the compound `COc1ccc([C@@H](O)c2cc(-c3ncnc4cc(N5CCOCC5)ccc34)c(F)cc2Cl)nn1` + NC1CCC(NC2CC2c2ccccc2)CC1, the IC50 is, setting by setting: under setting [1], 943 nM; under setting [2], 582 nM; under setting [3], 906 nM; under setting [4], 847 nM; under setting [5], 639 nM. The viability, T/C is, setting by setting: under setting [6], 91%; under setting [7], 80.4%; (second compound 0.1 µM, first compound 0.316 µM) 69%; (second compound 0.1 µM, first compound 1 µM) 47.9%; (second compound 0.1 µM, first compound 3.16 µM) 37.7%; (second compound 0.1 µM, first compound 10 µM) 32.9%. The viability, T/C under setting [8] is 80.3%; the viability, T/C under setting [9] is 81.6%; the viability, T/C (second compound 0.316 µM, first compound 0.316 µM) is 60.6%; the viability, T/C (second compound 0.316 µM, first compound 1 µM) is 39.9%; the viability, T/C (second compound 0.316 µM, first compound 3.16 µM) is 37.7%; the viability, T/C (second compound 0.316 µM, first compound 10 µM) is 28.8%. The viability, T/C runs as follows: under setting [10], 76%; under setting [11], 76.1%; (second compound 1 µM, first compound 0.316 µM) 66.9%; (second compound 1 µM, first compound 1 µM) 46.6%; (second compound 1 µM, first compound 3.16 µM) 35.6%; (second compound 1 µM, first compound 10 µM) 25.6%. The viability, T/C is 79.5% under setting [12]; 78.6% under setting [13]; 65.3% (second compound 3.16 µM, first compound 0.316 µM); 45.3% (second compound 3.16 µM, first compound 1 µM); 37% (second compound 3.16 µM, first compound 3.16 µM); 25.9% (second compound 3.16 µM, first compound 10 µM). Also, the viability, T/C under setting [14] was 63.2%; the viability, T/C under setting [15] was 63.2%; the viability, T/C (second compound 10 µM, first compound 0.316 µM) is 56.3%; the viability, T/C (second compound 10 µM, first compound 1 µM) was 44.6%; the viability, T/C (second compound 10 µM, first compound 3.16 µM) was 33.3%; the viability, T/C (second compound 10 µM, first compound 10 µM) is 17%.

For `O=C(c1cc(Cc2n[nH]c(=O)c3ccccc23)ccc1F)N1CCN(C(=O)C2CC2)CC1`, the viability, T/C is 95.3% and 96.8% (compound 0.0316 µM); 94.3% and 94.5% (compound 0.1 µM); 98.2% and 89.4% (compound 0.316 µM); 98.1% and 89.3% (compound 1 µM); 87.5% and 78.2% (compound 3.16 µM); 75.2% and 64.5% (compound 10 µM). For the same compound, where the note is “curve of compound”, the IC50 is > 10000 nM.

`CCc1c2c(nc3ccc(O)cc13)-c1cc3c(c(=O)n1C2)COC(=O)[C@]3(O)CC` + NC1CC1c1ccc(-c2cccc(O)c2)cc1: the IC50 reads like this: under setting [1], < 0.949 nM; under setting [2], < 0.949 nM; under setting [3], < 0.949 nM; under setting [4], < 0.949 nM; under setting [5], < 0.949 nM. Besides, the viability, T/C reads like this: (second compound 0.1 µM, first compound 0.000949 µM) 14.6%; (second compound 0.1 µM, first compound 0.003 µM) 11%; (second compound 0.1 µM, first compound 0.00949 µM) 0.89%; (second compound 0.1 µM, first compound 0.03 µM) 0.24%; (second compound 0.1 µM, first compound 0.0949 µM) 0.2%; (second compound 0.1 µM, first compound 0.3 µM) 0.32%. Also, the viability, T/C reads like this: (second compound 0.316 µM, first compound 0.000949 µM) 15.4%; (second compound 0.316 µM, first compound 0.003 µM) 11.4%; (second compound 0.316 µM, first compound 0.00949 µM) 0.92%; (second compound 0.316 µM, first compound 0.03 µM) 0.23%; (second compound 0.316 µM, first compound 0.0949 µM) 0.17%; (second compound 0.316 µM, first compound 0.3 µM) 0.28%. In addition, the viability, T/C by setting is: (second compound 1 µM, first compound 0.000949 µM) 15.4%; (second compound 1 µM, first compound 0.003 µM) 12.1%; (second compound 1 µM, first compound 0.00949 µM) 1.74%; (second compound 1 µM, first compound 0.03 µM) 0.23%; (second compound 1 µM, first compound 0.0949 µM) 0.19%; (second compound 1 µM, first compound 0.3 µM) 0.27%. Besides, the viability, T/C (second compound 3.16 µM, first compound 0.000949 µM) was 13.8%; the viability, T/C (second compound 3.16 µM, first compound 0.003 µM) was 11.7%; the viability, T/C (second compound 3.16 µM, first compound 0.00949 µM) is 1.62%; the viability, T/C (second compound 3.16 µM, first compound 0.03 µM) was 0.26%; the viability, T/C (second compound 3.16 µM, first compound 0.0949 µM) is 0.27%; the viability, T/C (second compound 3.16 µM, first compound 0.3 µM) is 0.73%. Further, the viability, T/C is, setting by setting: (second compound 10 µM, first compound 0.000949 µM) 14.4%; (second compound 10 µM, first compound 0.003 µM) 10.7%; (second compound 10 µM, first compound 0.00949 µM) 1.64%; (second compound 10 µM, first compound 0.03 µM) 0.89%; (second compound 10 µM, first compound 0.0949 µM) 0.3%; (second compound 10 µM, first compound 0.3 µM) 0.37%.

Turning to `Cn1ncnc1C1c2n[nH]c(=O)c3cc(F)cc(c23)NC1c1ccc(F)cc1` (centres undefined), the viability, T/C is, setting by setting: (compound 0.000316 µM) 102% and 114%; (compound 0.001 µM) 118% and 97.2%; (compound 0.00316 µM) 105% and 86.9%; (compound 0.01 µM) 108% and 86.5%; (compound 0.0316 µM) 93.6% and 103%; (compound 0.1 µM) 98.9% and 91.4%. The IC50 (curve of compound) was > 100 nM.
